Data taken from the kinase profiling compilation of Christmann-Franck et al. (2016).

Experiments:
Assay in all cases: KINOMEscan competition binding
Details in all cases: compound 10.0 µM
[1] = target: CLK1 (human) (UniProt P49759)
[2] = target: AKT2 (human) (UniProt P31751)
[3] = target: DYRK1A (human) (UniProt Q13627)
[4] = target: PRKACB (human) (UniProt P22694)
[5] = target: HCK (human) (UniProt P08631)
[6] = target: DAPK3 (human) (UniProt O43293)
[7] = target: CDKL5 (human) (UniProt O76039)
[8] = target: NTRK1 (human) (UniProt P04629)
[9] = target: BRAF (human) (UniProt P15056)
[10] = target: MAPK4 (human) (UniProt P31152)
[11] = system: FLT3 (human), P36888 [D835H]
[12] = system: KIT (human), P10721 [V559D/T670I]
[13] = target: PAK6 (human) (UniProt Q9NQU5)
[14] = target: ERBB4 (human) (UniProt Q15303)
[15] = system: LRRK2 (human), Q5S007 [G2019S]
LRRK2 (human), Q5S007 [G2019S], sequence (Q5S007 whole entry G2019S, looked up): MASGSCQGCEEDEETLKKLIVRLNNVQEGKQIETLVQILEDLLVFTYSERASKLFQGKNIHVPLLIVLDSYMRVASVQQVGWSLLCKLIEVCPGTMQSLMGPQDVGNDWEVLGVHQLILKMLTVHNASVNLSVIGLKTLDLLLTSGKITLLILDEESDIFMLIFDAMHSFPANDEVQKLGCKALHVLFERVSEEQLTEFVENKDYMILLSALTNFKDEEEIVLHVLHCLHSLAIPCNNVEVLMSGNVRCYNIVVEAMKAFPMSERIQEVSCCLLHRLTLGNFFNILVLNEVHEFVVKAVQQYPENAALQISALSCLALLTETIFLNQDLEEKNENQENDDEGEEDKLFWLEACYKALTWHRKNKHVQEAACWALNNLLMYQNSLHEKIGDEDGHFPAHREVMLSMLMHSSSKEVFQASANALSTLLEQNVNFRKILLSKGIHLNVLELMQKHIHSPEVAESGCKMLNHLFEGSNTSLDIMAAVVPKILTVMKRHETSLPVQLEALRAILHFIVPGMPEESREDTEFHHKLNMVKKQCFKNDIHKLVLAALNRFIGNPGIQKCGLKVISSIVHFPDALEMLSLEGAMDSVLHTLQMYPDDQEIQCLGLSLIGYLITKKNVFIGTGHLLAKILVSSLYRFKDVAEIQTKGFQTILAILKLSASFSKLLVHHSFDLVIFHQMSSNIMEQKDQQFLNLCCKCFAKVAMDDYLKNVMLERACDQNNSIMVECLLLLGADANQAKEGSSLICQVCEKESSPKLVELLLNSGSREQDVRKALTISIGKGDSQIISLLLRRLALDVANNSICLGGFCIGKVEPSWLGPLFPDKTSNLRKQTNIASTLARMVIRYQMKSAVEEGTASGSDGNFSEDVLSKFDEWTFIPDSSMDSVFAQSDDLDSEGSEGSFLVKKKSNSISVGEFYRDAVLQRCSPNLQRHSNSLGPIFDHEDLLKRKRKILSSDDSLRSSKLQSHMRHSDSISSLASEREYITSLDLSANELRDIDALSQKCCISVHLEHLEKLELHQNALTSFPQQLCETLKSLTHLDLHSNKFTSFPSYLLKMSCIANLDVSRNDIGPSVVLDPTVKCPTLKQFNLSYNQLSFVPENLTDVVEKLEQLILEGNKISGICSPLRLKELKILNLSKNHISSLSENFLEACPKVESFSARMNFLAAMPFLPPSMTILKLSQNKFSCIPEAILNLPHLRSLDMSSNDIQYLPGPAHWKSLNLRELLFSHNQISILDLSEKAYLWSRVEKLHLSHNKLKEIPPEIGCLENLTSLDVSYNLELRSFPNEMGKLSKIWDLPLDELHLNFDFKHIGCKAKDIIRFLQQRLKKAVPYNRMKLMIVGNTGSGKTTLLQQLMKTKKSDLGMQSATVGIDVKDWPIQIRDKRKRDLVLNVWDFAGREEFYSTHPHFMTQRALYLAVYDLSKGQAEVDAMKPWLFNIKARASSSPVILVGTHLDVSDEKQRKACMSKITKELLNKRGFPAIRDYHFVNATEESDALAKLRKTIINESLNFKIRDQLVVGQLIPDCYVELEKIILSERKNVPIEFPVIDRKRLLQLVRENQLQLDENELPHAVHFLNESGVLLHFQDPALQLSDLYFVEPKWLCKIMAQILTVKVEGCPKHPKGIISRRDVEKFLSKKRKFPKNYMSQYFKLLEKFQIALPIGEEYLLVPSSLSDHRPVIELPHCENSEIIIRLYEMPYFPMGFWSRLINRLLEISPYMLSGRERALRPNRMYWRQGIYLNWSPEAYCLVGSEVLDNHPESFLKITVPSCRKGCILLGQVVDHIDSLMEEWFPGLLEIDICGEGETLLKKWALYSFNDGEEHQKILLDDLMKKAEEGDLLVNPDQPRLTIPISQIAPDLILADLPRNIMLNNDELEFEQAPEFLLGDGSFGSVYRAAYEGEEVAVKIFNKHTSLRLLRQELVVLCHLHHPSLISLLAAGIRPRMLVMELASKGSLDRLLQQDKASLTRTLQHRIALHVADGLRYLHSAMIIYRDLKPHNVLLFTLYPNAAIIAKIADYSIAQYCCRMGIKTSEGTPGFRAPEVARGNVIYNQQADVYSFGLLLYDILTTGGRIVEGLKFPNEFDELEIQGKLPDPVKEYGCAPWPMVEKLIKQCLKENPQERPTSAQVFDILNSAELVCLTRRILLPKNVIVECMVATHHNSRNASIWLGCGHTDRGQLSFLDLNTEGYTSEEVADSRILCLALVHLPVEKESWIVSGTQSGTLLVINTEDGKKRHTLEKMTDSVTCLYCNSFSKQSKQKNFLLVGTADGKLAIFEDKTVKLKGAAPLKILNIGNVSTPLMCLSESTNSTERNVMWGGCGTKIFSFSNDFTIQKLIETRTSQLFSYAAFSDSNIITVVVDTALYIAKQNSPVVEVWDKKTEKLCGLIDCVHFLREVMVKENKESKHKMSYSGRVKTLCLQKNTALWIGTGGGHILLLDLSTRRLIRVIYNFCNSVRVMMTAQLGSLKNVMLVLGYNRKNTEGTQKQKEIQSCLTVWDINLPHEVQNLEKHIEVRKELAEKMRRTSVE

[16] = target: MAPK12 (human) (UniProt P53778)
[17] = target: BTK (human) (UniProt Q06187)
[18] = target: CaMK1 (human) (UniProt Q14012)
[19] = target: NTRK2 (human) (UniProt Q16620)
[20] = target: MAP3K5 (human) (UniProt Q99683)
[21] = target: FGFR2 (human) (UniProt P21802)
[22] = target: FLT4 (human) (UniProt P35916)
[23] = target: CDK2 (human) (UniProt P24941)
[24] = target: FGR (human) (UniProt P09769)
[25] = target: CDK4 CCND1 (human) (UniProt P11802+P24385)
[26] = target: CSNK2A1 (human) (UniProt P68400)
[27] = target: AURKB (human) (UniProt Q96GD4)
[28] = target: ADCK3 (human) (UniProt Q8NI60)
[29] = target: PLK2 (human) (UniProt Q9NYY3)
[30] = target: PRKD1 (human) (UniProt Q15139)
[31] = target: MAP3K15 (human) (UniProt Q6ZN16)
[32] = target: FRK (human) (UniProt P42685)
[33] = target: MAP4K5 (human) (UniProt Q9Y4K4)
MAP4K5 (human), sequence (Q9Y4K4 whole entry, looked up): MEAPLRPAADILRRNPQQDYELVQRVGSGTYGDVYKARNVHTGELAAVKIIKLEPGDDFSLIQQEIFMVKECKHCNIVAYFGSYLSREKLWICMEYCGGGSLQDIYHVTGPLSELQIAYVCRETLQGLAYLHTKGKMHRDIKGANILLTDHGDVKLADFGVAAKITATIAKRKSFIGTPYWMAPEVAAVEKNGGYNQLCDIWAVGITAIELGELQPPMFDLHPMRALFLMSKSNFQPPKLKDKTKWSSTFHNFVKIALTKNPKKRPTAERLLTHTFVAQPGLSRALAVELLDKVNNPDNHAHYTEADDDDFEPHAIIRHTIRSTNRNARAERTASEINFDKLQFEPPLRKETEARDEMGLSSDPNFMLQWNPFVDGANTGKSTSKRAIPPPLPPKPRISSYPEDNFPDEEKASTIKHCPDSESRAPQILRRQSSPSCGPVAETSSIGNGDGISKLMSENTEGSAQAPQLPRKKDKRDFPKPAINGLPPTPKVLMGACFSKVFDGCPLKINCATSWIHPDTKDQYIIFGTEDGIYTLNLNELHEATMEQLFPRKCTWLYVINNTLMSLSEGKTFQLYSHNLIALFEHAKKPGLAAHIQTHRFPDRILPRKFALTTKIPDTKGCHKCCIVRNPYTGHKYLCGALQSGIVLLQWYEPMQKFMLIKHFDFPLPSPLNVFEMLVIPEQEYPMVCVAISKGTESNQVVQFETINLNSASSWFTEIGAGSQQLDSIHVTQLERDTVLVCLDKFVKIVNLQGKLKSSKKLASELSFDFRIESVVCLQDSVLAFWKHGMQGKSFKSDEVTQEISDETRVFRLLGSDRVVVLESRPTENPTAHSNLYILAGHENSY

[34] = target: PIK3C2G (human) (UniProt O75747)
[35] = target: EPHA8 (human) (UniProt P29322)
EPHA8 (human), sequence (P29322 whole entry, looked up): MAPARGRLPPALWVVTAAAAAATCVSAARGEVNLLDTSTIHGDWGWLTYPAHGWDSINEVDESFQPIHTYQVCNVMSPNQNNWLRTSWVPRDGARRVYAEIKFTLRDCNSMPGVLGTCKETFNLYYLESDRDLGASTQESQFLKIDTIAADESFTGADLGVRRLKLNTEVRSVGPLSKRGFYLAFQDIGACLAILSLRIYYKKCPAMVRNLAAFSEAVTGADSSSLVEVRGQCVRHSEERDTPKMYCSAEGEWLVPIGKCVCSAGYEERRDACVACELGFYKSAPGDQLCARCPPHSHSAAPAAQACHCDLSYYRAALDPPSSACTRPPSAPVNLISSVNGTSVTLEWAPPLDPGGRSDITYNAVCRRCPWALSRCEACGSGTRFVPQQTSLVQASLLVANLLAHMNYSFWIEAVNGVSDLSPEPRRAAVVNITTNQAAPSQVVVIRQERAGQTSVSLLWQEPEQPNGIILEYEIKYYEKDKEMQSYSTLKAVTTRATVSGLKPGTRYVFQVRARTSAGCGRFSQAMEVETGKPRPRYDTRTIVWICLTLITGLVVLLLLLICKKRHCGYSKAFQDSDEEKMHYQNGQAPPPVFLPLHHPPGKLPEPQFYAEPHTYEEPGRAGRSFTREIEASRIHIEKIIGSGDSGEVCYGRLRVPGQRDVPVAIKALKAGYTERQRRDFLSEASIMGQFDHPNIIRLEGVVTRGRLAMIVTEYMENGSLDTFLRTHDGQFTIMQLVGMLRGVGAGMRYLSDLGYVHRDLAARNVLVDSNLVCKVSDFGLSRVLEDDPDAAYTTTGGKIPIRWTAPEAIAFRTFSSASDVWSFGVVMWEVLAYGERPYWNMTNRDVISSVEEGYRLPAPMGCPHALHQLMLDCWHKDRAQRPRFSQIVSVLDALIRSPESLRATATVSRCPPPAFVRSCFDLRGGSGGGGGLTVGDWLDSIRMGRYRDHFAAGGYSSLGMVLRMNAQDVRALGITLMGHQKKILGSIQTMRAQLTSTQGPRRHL

[36] = system: RET (human), P07949 [V804M]
[37] = target: AKT3 (human) (UniProt Q9Y243)
AKT3 (human), sequence (Q9Y243 whole entry, looked up): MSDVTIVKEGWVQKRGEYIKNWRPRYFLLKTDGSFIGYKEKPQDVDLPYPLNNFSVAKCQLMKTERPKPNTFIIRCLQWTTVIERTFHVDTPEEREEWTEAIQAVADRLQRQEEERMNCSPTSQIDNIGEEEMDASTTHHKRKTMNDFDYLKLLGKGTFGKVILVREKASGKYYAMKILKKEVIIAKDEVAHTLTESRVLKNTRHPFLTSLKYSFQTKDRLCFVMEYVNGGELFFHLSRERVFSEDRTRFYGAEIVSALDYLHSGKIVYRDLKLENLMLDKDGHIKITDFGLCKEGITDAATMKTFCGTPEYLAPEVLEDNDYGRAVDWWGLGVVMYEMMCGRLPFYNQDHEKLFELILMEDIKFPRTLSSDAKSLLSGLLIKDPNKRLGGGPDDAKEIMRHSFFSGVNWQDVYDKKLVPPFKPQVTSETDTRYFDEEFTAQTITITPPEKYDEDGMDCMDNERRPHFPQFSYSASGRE

[38] = target: MAP3K2 (human) (UniProt Q9Y2U5)
[39] = target: PHKG1 (human) (UniProt Q16816)
[40] = target: CLK2 (human) (UniProt P49760)
[41] = target: RPS6KA4 KD1 (human) (UniProt O75676)

Which kinase still bound, per cent of control [1] does the source give for `COC(=O)Nc1ccc(-c2nc(N3CCOCC3)c3cnn(C4CCN(C(=O)OC)CC4)c3n2)cc1` here?
Its kinase still bound, per cent of control is 100%.

What about the kinase still bound, per cent of control [2] of the same molecule?
The kinase still bound, per cent of control was 100%.

And the kinase still bound, per cent of control [3]?
Its kinase still bound, per cent of control is 88%.

And the per cent of control [4]?
Its per cent of control is 97%.

And the kinase still bound, per cent of control [5]?
The kinase still bound, per cent of control was 100%.

And the kinase still bound, per cent of control [6]?
The kinase still bound, per cent of control was 92%.

And the per cent of control [7]?
Its per cent of control is 100%.

And the kinase still bound, per cent of control [8]?
The kinase still bound, per cent of control was 71%.

What about the kinase still bound, per cent of control [9] of the same molecule?
Its kinase still bound, per cent of control is 74%.

What about the kinase still bound, per cent of control [10] of the same molecule?
The kinase still bound, per cent of control was 68%.

What about the kinase still bound, per cent of control [11] of the same molecule?
The kinase still bound, per cent of control was 91%.

What about the kinase still bound, per cent of control [12] of the same molecule?
The kinase still bound, per cent of control was 100%.

What about the kinase still bound, per cent of control [13] of the same molecule?
Its kinase still bound, per cent of control is 100%.

And the kinase still bound, per cent of control [14]?
The kinase still bound, per cent of control was 98%.

What about the kinase still bound, per cent of control [15] of the same molecule?
Its kinase still bound, per cent of control is 80%.

What about the kinase still bound, per cent of control [16] of the same molecule?
The kinase still bound, per cent of control was 0%.

And the kinase still bound, per cent of control [17]?
Its kinase still bound, per cent of control is 99%.

And the kinase still bound, per cent of control [18]?
Its kinase still bound, per cent of control is 96%.

What about the kinase still bound, per cent of control [19] of the same molecule?
Its kinase still bound, per cent of control is 100%.

And the kinase still bound, per cent of control [20]?
Its kinase still bound, per cent of control is 100%.

And the kinase still bound, per cent of control [21]?
Its kinase still bound, per cent of control is 100%.

What about the kinase still bound, per cent of control [22] of the same molecule?
The kinase still bound, per cent of control was 92%.

And the per cent of control [23]?
The per cent of control was 91%.

And the kinase still bound, per cent of control [24]?
The kinase still bound, per cent of control was 96%.

What about the per cent of control [25] of the same molecule?
Its per cent of control is 100%.

What about the kinase still bound, per cent of control [26] of the same molecule?
The kinase still bound, per cent of control was 62%.

What about the kinase still bound, per cent of control [27] of the same molecule?
Its kinase still bound, per cent of control is 100%.

And the kinase still bound, per cent of control [28]?
The kinase still bound, per cent of control was 80%.

What about the kinase still bound, per cent of control [29] of the same molecule?
Its kinase still bound, per cent of control is 96%.

And the kinase still bound, per cent of control [30]?
The kinase still bound, per cent of control was 95%.

And the kinase still bound, per cent of control [31]?
Its kinase still bound, per cent of control is 96%.

And the kinase still bound, per cent of control [32]?
The kinase still bound, per cent of control was 99%.

What about the kinase still bound, per cent of control [33] of the same molecule?
The kinase still bound, per cent of control was 100%.

What about the kinase still bound, per cent of control [34] of the same molecule?
The kinase still bound, per cent of control was 24%.

And the kinase still bound, per cent of control [35]?
The kinase still bound, per cent of control was 97%.

And the kinase still bound, per cent of control [36]?
The kinase still bound, per cent of control was 100%.

And the kinase still bound, per cent of control [37]?
Its kinase still bound, per cent of control is 100%.

What about the kinase still bound, per cent of control [38] of the same molecule?
The kinase still bound, per cent of control was 89%.

And the kinase still bound, per cent of control [39]?
The kinase still bound, per cent of control was 81%.

What about the kinase still bound, per cent of control [40] of the same molecule?
The kinase still bound, per cent of control was 57%.

And the kinase still bound, per cent of control [41]?
Its kinase still bound, per cent of control is 94%.
